Experimental data: ChEMBL document CHEMBL4152332, “Discovery and synthesis of novel magnolol derivatives with potent anticancer activity in non-small cell lung cancer” (Eur J Med Chem, 2018)

Experiments:
[1] = test system: NCI-H1975; test: Cell cycle arrest in human NCI-H1975 cells assessed as accumulation at G0/G1 phase at 10 uM after 24 hrs by propidium iodide staining-based flow cytometric analysis (reference value: 56.11%); format: functional
[2] = test system: NCI-H1975; test: Cell cycle arrest in human NCI-H1975 cells assessed as accumulation at G0/G1 phase at 5 uM after 24 hrs by propidium iodide staining-based flow cytometric analysis (reference value: 56.11%); format: functional
[3] = test system: NCI-H1975; test: Induction of apoptosis in human NCI-H1975 cells assessed as increase in cleaved caspase-3 level after 48 hrs by Western blot analysis; format: functional, cell-based
[4] = test system: NCI-H1975; test: Induction of apoptosis in human NCI-H1975 cells assessed as early apoptotic cells at 10 uM after 48 hrs by annexin V/FITC-propidium iodide staining-based flow cytometric method ( Rvb = 6.09%); format: functional
[5] = test system: NCI-H1975; test: Potency index, ratio of IC50 for honokiol to IC50 for test compound for antiproliferative activity against human NCI-H1975 cells after 72 hrs by MTT assay; format: functional
[6] = test system: NCI-H1975; test: Cell cycle arrest in human NCI-H1975 cells assessed as increase in accumulation at G0/G1 phase after 24 hrs by propidium iodide staining-based flow cytometric analysis; format: functional
[7] = test system: NCI-H1975; test: Induction of apoptosis in human NCI-H1975 cells assessed as viable cells at 10 uM after 48 hrs by annexin V/FITC-propidium iodide staining-based flow cytometric method ( Rvb = 82.5%); format: functional; settings: NCI-H1975, 48 h, read-out: Activity
[8] = test system: NCI-H1975; test: Induction of apoptosis in human NCI-H1975 cells assessed as decrease in cyclin D1 level after 24 hrs by Western blot analysis; format: functional, cell-based
[9] = test system: NCI-H1975; test: Potency index, ratio of IC50 for magnolol to IC50 for test compound for antiproliferative activity against human NCI-H1975 cells after 72 hrs by MTT assay; format: functional
[10] = test system: NCI-H1975; test: Antitumor activity against human NCI-H1975 cells xenografted in Balb/c mouse assessed as change in tumor mass at 30 mg/kg, po qd treated for 18 days and measured every 2 days after compound dosing relative to control; format: functional
[11] = test system: NCI-H1975; test: Induction of apoptosis in human NCI-H1975 cells assessed as viable cells at 5 uM after 48 hrs by annexin V/FITC-propidium iodide staining-based flow cytometric method ( Rvb = 82.5%); format: functional; settings: NCI-H1975, 48 h, read-out: Activity
[12] = test system: NCI-H1975; test: Cell cycle arrest in human NCI-H1975 cells assessed as reduction in accumulation at S phase after 24 hrs by propidium iodide staining-based flow cytometric analysis; format: functional
[13] = test system: Mus musculus; test: Toxicity in Balb/c mouse xenografted with human NCI-H1975 cells assessed as change in body weight at 5 mg/kg, iv treated every 2 days for 9 days and measured every 2 days after compound dosing ( Rvb = 2.89%); format: organism-based; settings: in vivo
[14] = test system: Mus musculus; test: Toxicity in Balb/c mouse xenografted with human NCI-H1975 cells assessed as effect on lung size at 5 to 20 mg/kg, iv treated every 2 days for 9 days; format: organism-based; settings: in vivo
[15] = test system: NCI-H1975; test: Induction of apoptosis in human NCI-H1975 cells assessed as early apoptotic cells at 20 uM after 48 hrs by annexin V/FITC-propidium iodide staining-based flow cytometric method ( Rvb = 6.09%); format: functional
[16] = test system: NCI-H1975; test: Cell cycle arrest in human NCI-H1975 cells assessed as accumulation at S phase at 5 uM after 24 hrs by propidium iodide staining-based flow cytometric analysis (reference value: 22.93%); format: functional
[17] = test system: PC-9; test: Antiproliferative activity against human PC9 cells after 72 hrs by MTT assay; format: functional, cell-based; settings: PC-9, 72 h
[18] = test system: Mus musculus; test: Toxicity in Balb/c mouse xenografted with human NCI-H1975 cells assessed as effect on kidney morphology at 5 to 20 mg/kg, iv treated every 2 days for 9 days; format: organism-based; settings: in vivo
[19] = test system: NCI-H1975; test: Induction of apoptosis in human NCI-H1975 cells assessed as decrease in Cdk2 level after 24 hrs by Western blot analysis; format: functional, cell-based
[20] = test system: NCI-H358; test: Antiproliferative activity against human NCI-H358 cells after 72 hrs by MTT assay; format: functional, cell-based; settings: NCI-H358, 72 h
[21] = test system: NCI-H1975; test: Cell cycle arrest in human NCI-H1975 cells assessed as accumulation at G2/M phase at 20 uM after 24 hrs by propidium iodide staining-based flow cytometric analysis (reference value: 20.11%); format: functional
[22] = test system: NCI-H1975; test: Cell cycle arrest in human NCI-H1975 cells assessed as reduction in accumulation at G2/M phase after 24 hrs by propidium iodide staining-based flow cytometric analysis; format: functional
[23] = test system: Mus musculus; test: Toxicity in Balb/c mouse xenografted with human NCI-H1975 cells assessed as change in body weight at 10 mg/kg, iv treated every 2 days for 9 days and measured every 2 days after compound dosing ( Rvb = 2.89%); format: organism-based; settings: in vivo
[24] = test system: NCI-H1975; test: Cell cycle arrest in human NCI-H1975 cells assessed as accumulation at G2/M phase at 5 uM after 24 hrs by propidium iodide staining-based flow cytometric analysis (reference value: 20.11%); format: functional
[25] = test system: NCI-H1975; test: Induction of apoptosis in human NCI-H1975 cells assessed as decrease in cyclin E level after 24 hrs by Western blot analysis; format: functional, cell-based
[26] = test system: NCI-H1975; test: Antitumor activity against human NCI-H1975 cells xenografted in Balb/c mouse assessed as change in tumor mass at 10 mg/kg, po qd treated for 18 days and measured every 2 days after compound dosing relative to control; format: functional
[27] = test system: Mus musculus; test: Toxicity in Balb/c mouse xenografted with human NCI-H1975 cells assessed as effect on heart size at 5 to 20 mg/kg, iv treated every 2 days for 9 days; format: organism-based; settings: in vivo
[28] = test system: NCI-H1975; test: Cell cycle arrest in human NCI-H1975 cells assessed as accumulation at S phase at 20 uM after 24 hrs by propidium iodide staining-based flow cytometric analysis (reference value: 22.93%); format: functional
[29] = test system: NCI-H1975; test: Induction of apoptosis in human NCI-H1975 cells assessed as necrotic cells at 20 uM after 48 hrs by annexin V/FITC-propidium iodide staining-based flow cytometric method ( Rvb = 1.01%); format: functional
[30] = test system: A549; test: Antiproliferative activity against human A549 cells after 72 hrs by MTT assay; format: functional, cell-based; settings: A549, 72 h
[31] = test system: Mus musculus; test: Toxicity in Balb/c mouse xenografted with human NCI-H1975 cells assessed as mouse death at 5 to 20 mg/kg, iv treated every 2 days for 9 days and measured every 2 days after compound dosing; format: organism-based; settings: in vivo
[32] = test system: Mus musculus; test: Toxicity in Balb/c mouse xenografted with human NCI-H1975 cells assessed as effect on liver morphology at 5 to 20 mg/kg, iv treated every 2 days for 9 days; format: organism-based; settings: in vivo
[33] = test system: HUVEC; test: Antimigratory activity against HUVEC after 24 to 48 hrs by phase contrast/fluorescence microscopic analysis; format: functional, cell-based; settings: Homo sapiens
[34] = test system: NCI-H441; test: Antiproliferative activity against human H441 cells after 72 hrs by MTT assay; format: functional, cell-based; settings: NCI-H441, 72 h
[35] = test system: Mus musculus; test: Toxicity in Balb/c mouse xenografted with human NCI-H1975 cells assessed as change in body weight at 30 mg/kg, po qd treated for 18 days and measured every 2 days after compound dosing ( Rvb = 2.89%); format: organism-based; settings: in vivo
[36] = test system: NCI-H1975; test: Antitumor activity against human NCI-H1975 cells xenografted in Balb/c mouse assessed as change in tumor mass at 10 mg/kg, iv treated every 2 days for 9 days and measured every 2 days after compound dosing relative to control; format: functional

With `C=CCc1ccc(O)c(-c2cc(CC=C)cc(CN3CCC(N)CC3)c2O)c1` the Activity [1] was 67.09%, the Activity [2] was 62.26% and the Activity [3] was “Dose-dependent effect”. For the same molecule, the Activity [4] was 10.1%, the “Ratio IC50” value [5] was 4 and the Activity [6] was “Dose-dependent effect”. For the same molecule, the viability at 10 µM [7] was 56.7%, the Activity [8] was “Dose-dependent effect” and the “Ratio IC50” value [9] was 8. For the same molecule, the Activity [10] was 59.3%, the viability at 5 µM [11] was 66.5% and the Activity [12] was “Dose-dependent effect”. The Activity [13] was 4.4%, the Activity [14] was “Non-Toxic” and the Activity [15] was 46.8%. For the same molecule, the Activity [16] was 22.39%, the IC50 [17] was 12.5 µM and the Activity [18] was “Non-Toxic”. The Activity [19] was “Dose-dependent effect”, the IC50 [20] was 7.43 µM and the Activity [21] was 6.13%. The Activity [22] was “Dose-dependent effect”, the Activity [23] was 8.89% and the Activity [24] was 13.41%. For the same molecule, the Activity [25] was “Dose-dependent effect”, the Activity [26] was 46.3% and the Activity [27] was “Non-Toxic”. For the same molecule, the Activity [28] was 12.63%, the Activity [29] was 0.35% and the IC50 [30] was 5.48 µM. The Activity [31] was “Non-Toxic”, the Activity [32] was “Non-Toxic” and the Activity [33] was “Dose-dependent effect”. It also gave an IC50 [34] of 5.63 µM, an Activity [35] of 8.85% and an Activity [36] of 57.5%.
